# Patent publication US6376518B1, “Acyl derivatives of 4-demethylpenclomedine, use thereof and preparation thereof” (Southern Research Institute, priority 1999, dated 2002)
# Where two headings read alike, the source gives them in different places. Marks after values point to notes of the source that are not given here.
# Legend:
# [1] = Anti-cancer activity of precursor compounds
# [2] = system: U251 human CNS tumor; assay: In vivo antitumor activity vs sc U251 xenograft
# [3] = system: UISO-BCA-1 human mammary tumor; assay: In vivo antitumor activity vs sc UISO-BCA-1 xenograft; conditions: IP 90 mg/kg/dose, Days 16-20
# [4] = system: SF-295 CNS tumor; assay: In vivo antitumor activity vs sc SF-295 xenograft; parameters: species or system human; conditions: IP 90 mg/kg/dose, Days 9-13
# [5] = system: P388/BCNU leukemia; assay: Antitumor activity against IP-implanted P388/BCNU leukemia in mice; conditions: for MEDIAN DAY OF DEATH: dying mice only
# [6] = system: OVCAR-5 ovarian tumor; assay: In vivo antitumor activity vs sc OVCAR-5 xenograft; parameters: species or system human; conditions: IP 90 mg/kg/dose, Days 12-16
# [7] = system: P388/CPA leukemia; assay: Antitumor activity against IP-implanted P388/CPA leukemia in mice; format: in vivo, murine; conditions: for 50-DAY SURV/TOTAL / % ILS / APPROX. NET LOG10 CHANGE IN TUMOR BURDEN AT END OF Rx / MEDIAN DAY OF DEATH: P388/CPA, Q1D × 5 (1); for MEDIAN DAY OF DEATH: dying mice only
# [8] = system: NCI-H82 small cell lung tumor; assay: In vivo antitumor activity vs sc NCI-H82 xenograft; parameters: species or system human
# [9] = system: MCF7 human mammary tumor; assay: In vivo antitumor activity vs sc MCF7 xenograft
# [10] = system: P388/0 leukemia
# [11] = system: CAKI-1 human renal tumor; assay: In vivo antitumor activity vs sc CAKI-1 xenograft
# [12] = system: HT29 human colon tumor; assay: In vivo antitumor activity vs sc HT29 xenograft
# [13] = system: human MX-1 mammary tumor; assay: In vivo antitumor activity vs i.c.-implanted human MX-1 mammary tumor xenograft in athymic mice; conditions: ic MX-1
# [14] = system: P388/L-PAM leukemia; conditions: for MEDIAN DAY OF DEATH: dying mice only
# [15] = system: human MX-1 mammary tumor; assay: In vivo antitumor activity vs s.c.-implanted human MX-1 mammary tumor xenograft in athymic mice; conditions: sc MX-1
# [16] = system: NCI-H460 nonsmall cell lung tumor; assay: In vivo antitumor activity vs sc NCI-H460 xenograft; parameters: species or system human; conditions: IP 90 mg/kg/dose, Days 6-10
# [17] = system: SK-MEL-28 melanoma; assay: In vivo antitumor activity vs sc SK-MEL-28 xenograft; parameters: species or system human; conditions: IP 90 mg/kg/dose, Days 8-12
# [18] = system: ZR-75-1 human mammary tumor; assay: In vivo antitumor activity vs sc ZR-75-1 xenograft; conditions: for Tumor-Free-Surv/Total: sc ZR-75-1
# [19] = P388/BCNU, IP 60.0 mg/kg/dose, Q1D × 5 (1)
# [20] = P388/BCNU, IP 90.0 mg/kg/dose, Q1D × 5 (1)
# [21] = P388/BCNU, IP 135.0 mg/kg/dose, Q1D × 5 (1)
# [22] = highest nontoxic doses evaluated, versus DM-PEN
# [23] = highest nontoxic doses evaluated, versus PEN
# [24] = sc NCI-H82, IP 60 mg/kg/dose, Days 13-17
# [25] = sc MCF7, IP 60 mg/kg/dose, Days 14-18
# [26] = P388/0, IP 60.0 mg/kg/dose, Q1D × 5 (1)
# [27] = P388/0, IP 90.0 mg/kg/dose, Q1D × 5 (1)
# [28] = P388/0, IP 135.0 mg/kg/dose, Q1D × 5 (1)
# [29] = sc CAKI-1, IP 90 mg/kg/dose, Days 19-23
# [30] = sc HT29, IP 90 mg/kg/dose, Days 14-18
# [31] = oral (gavage) 135 mg/kg/dose, Days 1-5
# [32] = P388/L-PAM, IP 60.0 mg/kg/dose, Q1D × 5 (1)
# [33] = P388/L-PAM, IP 90.0 mg/kg/dose, Q1D × 5 (1)
# [34] = P388/L-PAM, IP 135.0 mg/kg/dose, Q1D × 5 (1)
# [35] = oral (gavage) 135 mg/kg/dose, Days 13-17
# [36] = optimal doses (LD10 or less), schedule QD1-5, administered LP.
structure (smiles),measurement,setting,value
"CCOc1nc(C(Cl)(Cl)Cl)c(Cl)c(OCC)c1Cl [3,5-dichloro-4,6-diethoxy-2-(trichloromethyl)pyridine]",anti-cancer activity (in words),[1],active anti-cancer activity
"CCOc1c(Cl)c(OC)nc(C(Cl)(Cl)Cl)c1Cl [3,5-dichloro-4-ethoxy-6 methoxy-2-(trichloromethyl) pyridine]",anti-cancer activity (in words),[1],active anti-cancer activity
COc1nc(C(Cl)(Cl)Cl)c(Cl)c(OC(C)=O)c1Cl [DM-A-PEN],activity (in words),[2]; s.c.-implanted U251 human CNS tumor,moderate to modest activity
same,Tumor-Free-Surv/Total,"[2]; sc U251, IP 90 mg/kg/dose, Days 19-23",0/5
same,T-C,[3],-2.4 days
same,Tumor-Free-Surv/Total,[3],0/5
same,T-C,[4],0.7 days
same,Tumor-Free-Surv/Total,[4],0/5
same,50-DAY SURV/TOTAL,[5]; [19],1/6
same,% ILS,[5]; [19],+44%
same,APPROX. NET LOG10 CHANGE IN TUMOR BURDEN AT END OF Rx,[5]; [19],0
same,MEDIAN DAY OF DEATH,[5]; [19],13.0
same,50-DAY SURV/TOTAL,[5]; [20],0/6
same,% ILS,[5]; [20],+77%
same,APPROX. NET LOG10 CHANGE IN TUMOR BURDEN AT END OF Rx,[5]; [20],−2.3
same,MEDIAN DAY OF DEATH,[5]; [20],16.0
same,50-DAY SURV/TOTAL,[5]; [21],0/6
same,APPROX. NET LOG10 CHANGE IN TUMOR BURDEN AT END OF Rx,[5]; [21],−4.1
same,Toxicity / lethality level at the dosage (LD),[5]; [21],LD17
same,MEDIAN DAY OF DEATH,[5]; [21],21.0
same,more active than DM-PEN against P388/BCNU (difference in log cell kill),[5]; [22],1.5 log cell kill
same,more active than PEN against P388/BCNU (difference in log cell kill),[5]; [23],3.5 log cell kill
same,T-C,[6],4.0 days
same,Tumor-Free-Surv/Total,[6],0/5
same,50-DAY SURV/TOTAL,[7]; IP 60.0 mg/kg/dose,0/6
same,% ILS,[7]; IP 60.0 mg/kg/dose,+54%
same,APPROX. NET LOG10 CHANGE IN TUMOR BURDEN AT END OF Rx,[7]; IP 60.0 mg/kg/dose,−1.1
same,MEDIAN DAY OF DEATH,[7]; IP 60.0 mg/kg/dose,17.0
same,50-DAY SURV/TOTAL,[7]; IP 90.0 mg/kg/dose,0/6
same,% ILS,[7]; IP 90.0 mg/kg/dose,+86%
same,APPROX. NET LOG10 CHANGE IN TUMOR BURDEN AT END OF Rx,[7]; IP 90.0 mg/kg/dose,−3.1
same,50-DAY SURV/TOTAL,[7]; IP 135.0 mg/kg/dose,0/6
same,APPROX. NET LOG10 CHANGE IN TUMOR BURDEN AT END OF Rx,[7]; IP 135.0 mg/kg/dose,−5.7
same,MEDIAN DAY OF DEATH,[7]; IP 135.0 mg/kg/dose,25.0
same,more active than DM-PEN against P388/CPA (difference in log cell kill),[7]; [22],4.6 log cell kill
same,more active than PEN against P388/CPA (difference in log cell kill),[7]; [23],7.4 log cell kill
same,activity (in words),[8]; s.c.-implanted NCI-H82 small cell lung tumor,moderate to modest activity
same,T-C,[8]; [24],7.2 days
same,Tumor-Free-Surv/Total,[8]; [24],0/5
same,activity (in words),[9]; s.c.-implanted MCF7 human mammary tumor,moderate to modest activity
same,T-C,[9]; [25],7.1 days
same,Tumor-Free-Surv/Total,[9]; [25],0/5
same,50-DAY SURV/TOTAL,[10]; [26],0/6
same,% ILS,[10]; [26],+72%
same,APPROX. NET LOG10 CHANGE IN TUMOR BURDEN AT END OF Rx,[10]; [26],−3.1
same,MEDIAN DAY OF DEATH,"[10]; P388/0, IP 60.0 mg/kg/dose, Q1D × 5 (1), dying mice only",19.0
same,50-DAY SURV/TOTAL,[10]; [27],0/6
same,% ILS,[10]; [27],+95%
same,APPROX. NET LOG10 CHANGE IN TUMOR BURDEN AT END OF Rx,[10]; [27],−5.0
same,50-DAY SURV/TOTAL,[10]; [28],0/6
same,% ILS,[10]; [28],+159%
same,APPROX. NET LOG10 CHANGE IN TUMOR BURDEN AT END OF Rx,[10]; [28],~−6.8
same,Toxicity / lethality level at the dosage (LD),[10]; [28],LD33
same,more active than DM-PEN against P388/O (difference in log cell kill),[10]; [22],1.9 log cell kill
same,more active than PEN against P388/0 (difference in log cell kill),[10]; [23],0.4 log cell kill
same,activity (in words),[11]; s.c.-implanted CAKI-1 human renal tumor,moderate to modest activity
same,T-C,[11]; [29],8.4 days
same,Tumor-Free-Surv/Total,[11]; [29],0/5
same,activity (in words),[12]; s.c.-implanted HT29 human colon tumor,moderate to modest activity
same,T-C,[12]; [30],5.8 days
same,Tumor-Free-Surv/Total,[12]; [30],0/5
same,Median % ILS (dying mice only),"[13]; IP 60 mg/kg/dose, Days 1-5",+60%
same,Median % ILS (dying mice only),[13]; [31],+88%
same,50-DAY SURV/TOTAL,[14]; [32],0/6
same,% ILS,[14]; [32],+14%
same,APPROX. NET LOG10 CHANGE IN TUMOR BURDEN AT END OF Rx,[14]; [32],+1.2
same,MEDIAN DAY OF DEATH,[14]; [32],18.0
same,50-DAY SURV/TOTAL,[14]; [33],0/6
same,% ILS,[14]; [33],+14%
same,APPROX. NET LOG10 CHANGE IN TUMOR BURDEN AT END OF Rx,[14]; [33],+1.2
same,MEDIAN DAY OF DEATH,[14]; [33],18.0
same,50-DAY SURV/TOTAL,[14]; [34],0/6
same,% ILS,[14]; [34],+35%
same,APPROX. NET LOG10 CHANGE IN TUMOR BURDEN AT END OF Rx,[14]; [34],−0.8
same,Toxicity / lethality level at the dosage (LD),[14]; [34],LD17
same,MEDIAN DAY OF DEATH,[14]; [34],19.0
same,more active than PEN or DM-PEN against P388/L-PAM (difference in log cell kill),"[14]; highest nontoxic doses evaluated, versus PEN or DM-PEN",0.2-0.3 log cell kill
same,activity in the P388/L-PAM tumor model (in words),"[14]; mouse, in vivo",none of the three showed significant activity
same,Tumor-Free-Surv/Total,"[15]; IP 60 mg/kg/dose (LD20), Days 15-19",3/5
same,Tumor-Free-Surv/Total,"[15]; IP 60 mg/kg/dose, Days 14-18",4/5
same,Dose (mg/kg) with observed lethality level,"[15]; IP 60 mg/kg/dose, Days 15-19",60 (LD20)
same,T-C,"[15]; IP 90 mg/kg/dose, Days 12-16",>41.0 days
same,Tumor-Free-Surv/Total,"[15]; IP 90 mg/kg/dose, Days 12-16",5/5
same,Tumor-Free-Surv/Total,[15]; [35],5/5
same,T-C,[16],-0.6 days
same,Tumor-Free-Surv/Total,[16],0/5
same,T-C,[17],0.7 days
same,Tumor-Free-Surv/Total,[17],0/5
same,activity (in words),[18]; s.c.-implanted ZR-75-1 human mammary tumor,moderate to modest activity
same,Tumor-Free-Surv/Total,"[18]; IP 60 mg/kg/dose, Days 10-14",0/5
same,Tumor-Free-Surv/Total,"[18]; IP 90 mg/kg/dose, Days 8-12",0/5
COc1nc(C(Cl)(Cl)Cl)c(Cl)c(OC(=O)C(C)(C)C)c1Cl [DM-P-PEN],Median % ILS (dying mice only),"[13]; IP 135 mg/kg/dose, Days 1-5",+64%
same,Median % ILS (dying mice only),[13]; [31],+20%
same,Tumor-Free-Surv/Total,"[15]; IP 135 mg/kg/dose, Days 11-15",5/5
same,T-C,[15]; [35],0.9 days
same,Tumor-Free-Surv/Total,[15]; [35],0/5
COc1nc(C(Cl)(Cl)Cl)c(Cl)c(OC(=O)Cc2cccs2)c1Cl [DM-TA-PEN],Median % ILS (dying mice only),"[13]; IP 90 mg/kg/dose, Days 1-5",+75%
same,Tumor-Free-Surv/Total,"[15]; IP 90 mg/kg/dose, Days 12-16",3/5
COc1nc(C(Cl)(Cl)Cl)c(Cl)c(OC(=O)c2cccs2)c1Cl [DM-TC-PEN],activity against i.c.-implanted tumor in comparison to PEN and DM-PEN (in words),[13],significant activity
same,Median % ILS (dying mice only),"[13]; IP 135 mg/kg/dose, Days 1-5",+100%
same,Tumor-Free-Surv/Total,"[13]; IP 135 mg/kg/dose, Days 1-5",0/5
same,Median % ILS (based on dying mice only),[13]; [36],100^d %
same,Survivors,[13]; [36],0/5
same,Tumor-Free-Surv/Total,"[15]; IP 90 mg/kg/dose, Days 12-16",4/5
